According to paper PMC9301920, “Physiologically Based Toxicokinetic Modeling of Bisphenols in Zebrafish (Danio rerio) Accounting for Variations in Metabolic Rates, Brain Distribution, and Liver Accumulation” (Environmental Science & Technology, 2022):
Counter-ions that a name gives are not always drawn. Like-named read-outs stand apart in the source and are kept apart here. Marks after values point to notes of the source that are not given here.

Tests used:
[1] = In vitro biotransformation rate, rainbow trout liver S9 (OECD TG 319); assay type: in vitro ADME
Method: In brief, rainbow trout liver S9 homogenate was preincubated in buffer and cofactors, followed by 120 min of incubation with bisphenol. From each duplicate, 50 μL of subsamples was taken at timepoints 0, 2, 5, 15, 30, 60, 90, and 120 min and mixed with 200 μL of ice-cold methanol. The protocol of the procedure is described further in Section 2.
1042. Biotransformation rate estimation methodology
106Trinova Biochem; Lot: 180216) was pre-incubated at 11°C in K 2HPO4/KH2PO4 buffer
107(pH=7.8; 1 mL final volume) containing alamethicin from Trichoderma viride (25 μg/mL), and
108cofactors NADPH (2 mM), UDPGA (2 mM), GSH (5 mM), and PAPS (0.1 mM). After 10 min
109of preincubation, biotransformation was started by adding 5 µL of bisphenol test compound
110dissolved in methanol (1 µM final concentration). […]

Estrogen receptor (ER) [2] = target: Estrogen receptor (ER); parameters: method as in Tox21; conditions: ATG ERE CIS up assay; ref Tox21; cited from earlier work
Estrogen receptor (ER) [3] = target: Estrogen receptor (ER); parameters: method as in Tox21; conditions: ATG Era Trans up assay; ref Tox21; cited from earlier work
[4] = cited from earlier work
[5] = hepatocytes; cited from earlier work
zebrafish [6] = conditions: cited from earlier work
zebrafish [7] = conditions: cited from earlier work; remark: listed apart in the source
[8] = cited from earlier work; remark: listed apart in the source
Estrogen receptor (ER) [9] = target: Estrogen receptor (ER); parameters: method as in Kitamura et al. 2005; conditions: ERE-luciferase reporter assay, MCF-7 cells; ref Kitamura et al. 2005; cited from earlier work
[10] = measured value, cited from earlier work
ER = conditions: known from literature, no reference given; cited from earlier work
zebrafish [11] = experiment: PBTK parameter fitting (Nelder–Mead algorithm) to in vivo zebrafish data; parameters: species or system zebrafish (Danio rerio); conditions: fitted on egg TBBPA concentrations, 100 nmol/g feed (Nyholm et al.)
Source text: Ovaries and eggs were assumed to receive the same blood flow. The equation for the egg compartment was described as follows using the diffusion-limited equation previously described by Thompson and Beard[51] [drawing 4] 4 where dAegg/dt represents the rate of change of bisphenol over time in the egg compartment, Agon and Aegg represent the amount of compound in the gonads and egg, respectively, Vgon and Vegg are the volumes of the gonads and eggs, respectively, and Pgon and Pegg are the partition coefficients of the gonads to blood and egg to gonads.
Parameter fitting was done in R using the modFit function in the FME package with the Nelder–Mead algorithm.[53]
279For fitting, the model was run using the exposure scenarios of each fitting data set.
280parameters were fixed as presented in Tables S10-S14 with exception of the parameter for
281which fitting was performed. The outcome evaluated by fitting algorithm was the concentration
282over time in the same tissue as the experimental data. Outcomes used for fitting to measured
283experimental data were: concentration in brain for brain-blood partition coefficient,
284concentration in liver for liver-blood partition coefficient, concentration in eggs for egg-gonad
285partition coefficient and whole-body metabolite concentration for Ke bile and KBG of metabolites.
286For the liver, brain and egg partitioning, the range was set between 0.01 and 500 and the Nelder-
287Mead algorithm was run with initial estimates at 1, 5, 10, 50 and 500 in order to assure a global
288minimum was found. The fitted values returning the lowest squared sum of residuals were used
The GI lumen to GI tract diffusion rate (K u)

zebrafish [12] = tested on: zebrafish; parameters: method as in Nyholm et al. 46; conditions: female, observed, ref Nyholm et al. 46, cited from earlier work
[13] = from measured S9 clearance, transformed as suggested by Nichols et al.
[14] = in vitro incubation with rainbow trout liver S9, assuming 163 mg S9 protein/g liver
[15] = measured human values, ref CompTox Dashboard
[16] = 20 μg/L, female, liver, observed, ref Shi et al. 47
[17] = 20 μg/L, female, ovaries, observed, ref Shi et al. 47
[18] = 20 μg/L, female, whole body, observed, ref Shi et al. 47
[19] = 20 μg/L, male, liver, observed, ref Shi et al. 47
[20] = 20 μg/L, male, testes, observed, ref Shi et al. 47
[21] = 20 μg/L, male, whole body, observed, ref Shi et al. 47
[22] = cells marked g, ref Staples et al. 1998
[23] = metabolite, Female, whole body, Observed, ref Shi et al. 2016
[24] = metabolite, Male, whole body, Observed, ref Shi et al. 2016
[25] = measured values, ref Grumetto et al 2019
[26] = metabolite, Female, whole body, Observed, ref Lindholst et al. 2003

## O=C(c1ccc(O)cc1O)c1ccc(O)cc1O [BP-2, benzophenone 2]
[1]; 163 mg
  CL (clearance rate): 5.79 × 10^4 mL/d/g liver
[1]; s9
  CLin vivo,int (in vivo intrinsic clearance): 869 L/d/Kg fish
Estrogen receptor (ER) [2]
  EC50: 620 nM
Estrogen receptor (ER) [3]
  EC50: 620 nM
[4]; human, plasma
  Funbound (plasma fraction unbound): 0.035
[5]
  CL (human clearance rate): 1.41*105 ml/d/g liver

## CC(C)(c1ccc(O)cc1)c1ccc(OS(=O)(=O)O)cc1 [BPA sulfate]
Zebrafish [6]; zebrafish, in vivo
  concentrations relative to those of the glucuronide: 1000 times lower

## Oc1ccc(C(c2ccc(O)cc2)(C(F)(F)F)C(F)(F)F)cc1 [BPAF, bisphenol AF]
[1]; both series combined
  CL: 0.78 mL/(h x mg)
[1]; [13]
  CLin vivo,int (in vivo intrinsic clearance): 45.5 L/d/Kg fish
[1]; [14]
  CL (clearance rate): 3.04 × 10^3 mL/d/g liver
[1]; series 1 (s1)
  CL: 0.75 mL/(h x mg)
  k (first-order disappearance rate constant): 0.73 h⁻¹
[1]; series 2 (s2)
  CL: 0.80 mL/(h x mg)
  k (first-order disappearance rate constant): 0.78 h⁻¹
[4]; [15]
  Funbound (plasma fraction unbound): 0.010
Zebrafish [7]; [16]
  AUC: 1.38 µg/g/day
  BCF: 11.9
  Cmax: 0.24 µg/g
  t1/2: 204 h
Zebrafish [7]; [17]
  AUC: 1.50 µg/g/day
  BCF: 10.9
  Cmax: 0.22 µg/g
  t1/2: 190 h
Zebrafish [7]; [18]
  AUC: 0.8 µg/g/day
  BCF: 7.04
  Cmax: 0.14 µg/g
  t1/2: 120 h
Zebrafish [7]; [19]
  AUC: 4.93 µg/g/day
  BCF: 40.5
  Cmax: 0.81 µg/g
  t1/2: 610 h
Zebrafish [7]; [20]
  AUC: 3.23 µg/g/day
  BCF: 27.5
  Cmax: 0.55 µg/g
  t1/2: 20.4 h
Zebrafish [7]; [21]
  AUC: 1.25 µg/g/day
  BCF: 9.80
  Cmax: 0.20 µg/g
  t1/2: 85.9 h

## O=C(O)[C@H]1O[C@@H](Oc2ccc(C(c3ccc(O)cc3)(C(F)(F)F)C(F)(F)F)cc2)[C@H](O)[C@@H](O)[C@@H]1O [BPAF-GA, BPAF glucuronic acid]
[8]; [22]
  Ratio blood-plasma: 1.00
Zebrafish [7]; [23]
  AUC: 6.54 µg/g/day
  Cmax: 1.09 µg/g
Zebrafish [7]; [24]
  AUC: 3.54 µg/g/day
  Cmax: 0.60 µg/g

## CC(c1ccccc1)(c1ccc(O)cc1)c1ccc(O)cc1 [BPAP, bisphenol AP]
[1]; both series combined
  CL: 1.80 mL/(h x mg)
[1]; [13]
  CLin vivo,int (in vivo intrinsic clearance): 106 L/d/Kg fish
[1]; [14]
  CL (clearance rate): 7.06 × 10^3 mL/d/g liver
[1]; series 1 (s1)
  CL: 1.79 mL/(h x mg)
  k (first-order disappearance rate constant): 1.73 h⁻¹
[1]; series 2 (s2)
  CL: 1.82 mL/(h x mg)
  k (first-order disappearance rate constant): 1.74 h⁻¹
Estrogen receptor (ER) [2]
  EC50: 290 nM
Estrogen receptor (ER) [3]
  EC50: 120 nM

## CCC(C)(c1ccc(O)cc1)c1ccc(O)cc1 [BPB, bisphenol B]
[1]; both series combined
  CL: 0.96 mL/(h x mg)
[1]; [13]
  CLin vivo,int (in vivo intrinsic clearance): 56.4 L/d/Kg fish
[1]; [14]
  CL (clearance rate): 3.76 × 10^3 mL/d/g liver
[1]; series 1 (s1)
  CL: 0.92 mL/(h x mg)
  k (first-order disappearance rate constant): 0.95 h⁻¹
[1]; series 2 (s2)
  CL: 1.00 mL/(h x mg)
  k (first-order disappearance rate constant): 0.99 h⁻¹
Estrogen receptor (ER) [2]
  EC50: 170 nM
Estrogen receptor (ER) [3]
  EC50: 130 nM
[4]; [15]
  Funbound (plasma fraction unbound): 0.018
[8]; [25]
  Ratio blood-plasma: 1.04
Estrogen receptor (ER) [9]
  EC50: 70 nM

## Cc1cc(C(C)(C)c2ccc(O)c(C)c2)ccc1O [BPC, bisphenol C]
[1]; both series combined
  CL: 1.03 mL/(h x mg)
[1]; [13]
  CLin vivo,int (in vivo intrinsic clearance): 60.6 L/d/Kg fish
[1]; [14]
  CL (clearance rate): 4.04 × 10^3 mL/d/g liver
[1]; series 1 (s1)
  CL: 1.01 mL/(h x mg)
  k (first-order disappearance rate constant): 1.03 h⁻¹
[1]; series 2 (s2)
  CL: 1.05 mL/(h x mg)
  k (first-order disappearance rate constant): 1.05 h⁻¹

## Oc1ccc(Cc2ccc(O)cc2)cc1 [BPF, bisphenol F]
[1]; both series combined
  CL: 0.31 mL/(h x mg)
[1]; [13]
  CLin vivo,int (in vivo intrinsic clearance): 18.0 L/d/Kg fish
[1]; [14]
  CL (clearance rate): 1.20 × 10^3 mL/d/g liver
[1]; series 1 (s1)
  CL: 0.31 mL/(h x mg)
  k (first-order disappearance rate constant): 0.31 h⁻¹
[1]; series 2 (s2)
  CL: 0.30 mL/(h x mg)
  k (first-order disappearance rate constant): 0.31 h⁻¹
[10]; ref CompTox Dashboard
  log Kow: 2.91 ^h
Estrogen receptor (ER) [2]
  EC50: 780 nM
Estrogen receptor (ER) [3]
  EC50: 950 nM
[8]; [25]
  Ratio blood-plasma: 1.41
Estrogen receptor (ER) [9]
  EC50: 1000 nM

## O=S(=O)(c1ccc(O)cc1)c1ccc(O)cc1 [BPS, bisphenol S]
[1]; series 1 (s1)
  k (first-order disappearance rate constant): 0.41 h⁻¹
[1]; series 2 (s2)
  k (first-order disappearance rate constant): 0.48 h⁻¹
Estrogen receptor (ER) [2]
  EC50: 1420 nM
Estrogen receptor (ER) [3]
  EC50: 800 nM
Estrogen receptor (ER) [9]
  EC50: 1100 nM

## CC(C)(C)c1cc(Cc2cc(C(C)(C)C)c(O)c(C(C)(C)C)c2)cc(C(C)(C)C)c1O [Bimox M]
ER
  ER activity: inactive on the ER
[1]
  CL (in vitro rainbow trout clearance rate): 0 ml/d/g liver
  metabolic degradation: no metabolic degradation
[1]; 163 mg
  CL (clearance rate): 0 mL/d/g liver
[1]; s9
  CLin vivo,int (in vivo intrinsic clearance): 0 L/d/Kg fish

## CC(C)(c1cc(Br)c(O)c(Br)c1)c1cc(Br)c(O)c(Br)c1 [TBBPA, tetrabromobisphenol A]
[1]; after 15 min of incubation, both repetitions
  parent compound metabolized when levels stopped decreasing: ~70%
[1]; both series combined
  CL: 4.18 mL/(h x mg)
[1]; [13]
  CLin vivo,int (in vivo intrinsic clearance): 245 L/d/Kg fish
[1]; [14]
  CL (clearance rate): 1.63 × 10^4 mL/d/g liver
[1]; series 1 (s1)
  CL: 3.90 mL/(h x mg)
  k (first-order disappearance rate constant): 3.95 h⁻¹
[1]; series 2 (s2)
  CL: 4.45 mL/(h x mg)
  k (first-order disappearance rate constant): 4.38 h⁻¹
[10]; ref Kuramochi et al. 68
  log Kow: 6.53 ^i
[4]; [15]
  Funbound (plasma fraction unbound): 0.001
Zebrafish [11]
  Ku (diffusion coefficient from GI lumen into GI tract): 8.40
Zebrafish [11]; used for all bisphenols
  Pegg (egg-gonad partition coefficient): 1.58
Zebrafish [12]; 10 nmol/g feed, egg
  AUC: 0.017 µg/g/day
  Cmax: 0.001 µg/g
Zebrafish [12]; 10 nmol/g feed, whole body
  AUC: 0.291 µg/g/day
  Cmax: 0.015 µg/g
Zebrafish [12]; 100 nmol/g feed, egg
  AUC: 0.118 µg/g/day
  Cmax: 0.004 µg/g

## BPA glucuronic acid [BPA-GA]
Zebrafish [6]; [26]
  AUC: 109 µg/g/day
  Cmax: 16.2 µg/g
  t1/2: 196 h
[8]; [22]
  Ratio blood-plasma: 1.00
